Laboratory results as given in paper PMC11507523, “Development of Malate Biosensor-Containing Hydrogels and Living Cell-Based Sensors” (International Journal of Molecular Sciences, 2024).

Target: T1, CitT (Escherichia coli, UniProt P0AE74)
T1 construct: CitT co-expressed with Malon in E. coli BL21 cells
T1 sequence (P0AE74 1-487): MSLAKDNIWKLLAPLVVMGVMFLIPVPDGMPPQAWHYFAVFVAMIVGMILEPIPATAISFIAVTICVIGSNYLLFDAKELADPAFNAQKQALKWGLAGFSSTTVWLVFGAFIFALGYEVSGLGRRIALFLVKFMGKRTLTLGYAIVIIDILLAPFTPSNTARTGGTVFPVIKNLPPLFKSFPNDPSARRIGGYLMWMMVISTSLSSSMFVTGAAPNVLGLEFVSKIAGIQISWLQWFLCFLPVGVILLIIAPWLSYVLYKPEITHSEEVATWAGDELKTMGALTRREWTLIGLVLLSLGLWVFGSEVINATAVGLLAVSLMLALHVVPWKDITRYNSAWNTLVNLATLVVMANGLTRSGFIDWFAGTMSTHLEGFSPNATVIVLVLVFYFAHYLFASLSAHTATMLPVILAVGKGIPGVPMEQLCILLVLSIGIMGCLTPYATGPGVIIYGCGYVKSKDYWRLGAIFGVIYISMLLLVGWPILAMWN
Assay: CitT-dependent malate uptake in E. coli, Malon fluorescence by flow cytometry
Assay type: cell-based

## O=C(O)C[C@H](O)C(=O)O [malate]
  CitT-dependent malate uptake in E. coli, Malon fluorescence by flow cytometry: Without the CitT transporter, little to no change in fluorescence was observed upon addition of malate
